Results on 4 molecules are retold here after PMC10800023 (Human Molecular Genetics, 2023).

Data set [1] deals with MDCK cells. The data set can be described thus: MDCK control cell permeability (not transfected with human P-gp). The note with it: dog, MDCK-MDR1, 60 min, pH 7.4. The method, then: (§1) To measure transport by P-gp, Madin-Darby canine kidney (MDCK) cells that had been transfected with the human P-gp (MDR1) gene were plated in a Transwell plate and cultured until polarized. MDCK cells that are not transfected with human P-gp were used as a control. Compounds were added to either the apical or the basolateral side of the cells, and transport across the membrane was measured.
(§2) Testing for permeability and MDR1 substrate assessment was done in MDCK cells transfected to overexpress human MDR1 gene that encodes efflux transporter protein (P-gp). […] Briefly, cells were maintained in Dulbecco’s modified Eagle medium (DMEM) with 10% fetal bovine serum and 1% penicillin/streptomycin in a humidified incubator at 37°C with 5% CO2. The study was performed by Absorption Systems (now Pharmaron; Exton, PA). The MDR1-MDCK and MDCK control cell lines were seeded into 12-well plates for 7 days. Integrity of monolayer tight junctions was monitored preincubation by transepithelial electrical resistance (TEER) measurement. […] The samples were withdrawn at t = 0 and 60 min from the receiver and donor compartments. Compound levels were measured by LC/MS–MS. Additionally, post-assay, cell monolayer integrity was checked with Lucifer Yellow permeability measurement. Transport assay low- and high-permeability control compounds were run in parallel for assay validation. Papp values were calculated considering compound concentrations across the monolayer and cell surface area. Efflux ratios were calculated based on Papp B > A over Papp A > B. The difference between the MDR1-MDCK and the MDCK cell efflux ratios was also calculated. […] Compounds were classified by Absorption Systems/Pharmaron as follows: […]

Data set [2] relates to human P-gp (MDR1). The data set can be described thus: MDR1-MDCK permeability / P-gp efflux assay. On the procedure: as §1, §2
A short description of data set [3]: MDCK control cell permeability (not transfected with human P-gp). The note with it: dog, pH 7.4. On the procedure:
as §1, §2

The subject of data set [4] is P-gp (MDR1). The data set can be described thus: MDR1-MDCK permeability / P-gp efflux assay. Conditions: MDCK-MDR1, pH 7.4. On the procedure:
as §1, §2

[5] abbreviates: dog, MDCK-MDR1, 60 min, 1 μM, pH 7.4.
Setting [6] is: dog, MDCK-MDR1, 60 min, 10 μM, pH 7.4.

Take `CC1=N[C@]2(C(=O)CO)[C@@H](C[C@H]3[C@@H]4CCC5=CC(=O)C=C[C@]5(C)[C@H]4[C@@H](O)C[C@@]32C)O1` [21-Des-deflazacort]: the “Apical to Basolateral MDCK” value was 12.4 10 ^ −6 cm/s in data set [1] (1 μM) and 6.28 10 ^ −6 cm/s in data set [1] (10 μM). In addition, the “Basolateral to Apical MDCK” value was 15.5 10 ^ −6 cm/s in data set [1] (1 μM) and 8.8 10 ^ −6 cm/s in data set [1] (10 μM). In data set [2] (MDCK-MDR1), this molecule had a Papp values of less than 3e-06 cm/s. Moreover, the “Apical to Basolateral MDR1-MDCK” value is given as 1.08 10 ^ −6 cm/s in data set [2] (setting [5]) and 1.11 10 ^ −6 cm/s in data set [2] (setting [6]). The “Basolateral to Apical MDR1-MDCK” value is 72.8 10 ^ −6 cm/s in data set [2] (setting [5]) and 73.6 10 ^ −6 cm/s in data set [2] (setting [6]).

In data set [3], `C[C@]12C=CC(=O)C=C1CC[C@@H]1[C@@H]2C(=O)C[C@@]2(C)[C@H]1CC[C@]2(O)C(=O)CO` [Prednisone] displayed an apical-to-basolateral permeability (Papp A→B) at 60 min, 1 μM of 2.83 ×10⁻⁶ cm/s; a Papp A→B at 60 min, 10 μM of 2.09 ×10⁻⁶ cm/s; an apparent permeability from basolateral to apical (Papp B→A) at 60 min, 1 μM of 3.42 ×10⁻⁶ cm/s; a Papp B→A at 60 min, 10 μM of 2.86 ×10⁻⁶ cm/s. In data set [4], this molecule yielded an apparent permeability coefficient (Papp) at 60 min of less than 3 ×10⁻⁶ cm/s. The “Apical to Basolateral MDR1-MDCK” value in data set [2] (10 μM) was 0.499 10 ^ −6 cm/s. The brain penetration classification entry in data set [2] (1 and 10 μM, from Papp (A-to-B) and efflux ratio) was “low”. In data set [2] (dog, MDCK-MDR1, pH 7.4), this molecule gave an apical-to-basolateral permeability (Papp A→B) at 60 min, 1 μM of 0.263 ×10⁻⁶ cm/s; a basolateral-to-apical permeability (Papp B→A) at 60 min, 1 μM of 43.8 ×10⁻⁶ cm/s; an apparent permeability from basolateral to apical (Papp B→A) at 60 min, 10 μM of 51.8 ×10⁻⁶ cm/s.

Regarding `C[C@H]1O[C@@H](O[C@H]2[C@@H](O)C[C@H](O[C@H]3[C@@H](O)C[C@H](O[C@H]4CC[C@@]5(C)[C@H](CC[C@@H]6[C@@H]5C[C@@H](O)[C@]5(C)[C@@H](C7=CC(=O)OC7)CC[C@]65O)C4)O[C@@H]3C)O[C@@H]2C)C[C@H](O)[C@@H]1O` [digoxin], in data set [4], the Papp A→B at 60 min was 0.0521 to 0.0558 ×10⁻⁶ cm/s, the Papp B→A at 60 min fell in the range of 19.6 to 20.7 ×10⁻⁶ cm/s and the efflux ratio at 60 min lay within 352 to 398.

As to `CC(C)NCC(O)COc1cccc2ccccc12` (centres unmarked) [propranolol], in data set [4], the Papp at 60 min fell in the range of 19.7 to 21.4 ×10⁻⁶ cm/s.
